Experimental data published in patent US20250206732A1, “COMPOUNDS AND METHODS FOR THE TARGETED DEGRADATION OF KRAS” (Arvinas Operations, Inc., priority 2022, published 2025).

Columns and labels:
AsPC-1 HiBiT-KRASG12D = molecular target: T1, AsPC-1 HiBiT-KRASG12D (Homo sapiens, UniProt P01116, G12D); assay: HiBiT degradation assay (G12D), AsPC-1 HiBiT-KRASG12D cells; assay type: cell-based; details: 24 hours treatment; for Dmax: ASPC1, AsPC-1 HiBiT-KRASG12D cells, maximum degradation observed; for DC50: AsPC-1 HiBiT-KRASG12D cells, HiBiT luminescence
T1 construct: insert the HiBiT tag onto the N-terminus of one or more of the endogenous KRAS alleles; endogenous in cells; host or cells: AsPC-1 (ATCC CRL-1682), CRISPR-Cas9 knock-in clone, one tagged allele
Procedure, shortened: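 24 h cmpd treatment, 37° C/5% CO2, AsPC-1 HiBiT-KRASG12D clone (CRISPR N-term tag). Alamar blue 1×, 4 h, fluorescence. PBS wash, Nano-Glo HiBiT lytic reagent, 45 min RT, luminescence. Triplicates.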

SW1573 HiBiT-KRASG12C = molecular target: T2, SW1573 HiBiT-KRASG12C (Homo sapiens, UniProt P01116, G12C); assay: HiBiT degradation assay (G12C), SW1573 HiBiT-KRASG12C cells; assay type: cell-based; details: 24 hours treatment; for DC50: HiBiT luminescence; for Dmax: maximum degradation observed;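 for DC50: Letter grades: C is 1000 to 3000 nM and D is above 3000 nM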
T2 construct: expressed in transfected cells
Procedure, shortened: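 SW1573 cells expressing N-terminal HiBiT-KRASG12C (clone E6) treated 24 h at 37 °C with 10 μM to 508 pM compound in 0.5% DMSO, triplicate. HiBiT lytic luminescence normalized to DMSO, 4-parameter fit gives DC50 and Dmax; points with ≥50% alamar blue viability loss excluded.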

T2 sequence (P01116 1-188 isoform P01116-2 G12C): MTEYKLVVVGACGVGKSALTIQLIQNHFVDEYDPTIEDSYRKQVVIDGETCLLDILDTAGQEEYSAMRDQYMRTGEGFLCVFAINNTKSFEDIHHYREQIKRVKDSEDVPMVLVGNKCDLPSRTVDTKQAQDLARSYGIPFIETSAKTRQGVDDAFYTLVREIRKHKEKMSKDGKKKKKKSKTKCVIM
T1 sequence (P01116 1-188 isoform P01116-2 G12D): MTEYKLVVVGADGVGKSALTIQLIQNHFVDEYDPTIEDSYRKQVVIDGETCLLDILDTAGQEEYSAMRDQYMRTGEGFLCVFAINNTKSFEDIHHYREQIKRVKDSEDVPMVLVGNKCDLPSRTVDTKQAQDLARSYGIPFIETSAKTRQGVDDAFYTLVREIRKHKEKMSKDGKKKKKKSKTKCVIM

Row | Dmax (SW1573 HiBiT-KRASG12C) [%] | Structure (SMILES) | Dmax (AsPC-1 HiBiT-KRASG12D) [%] | DC50 (AsPC-1 HiBiT-KRASG12D) [µM] | DC50 (SW1573 HiBiT-KRASG12C) [µM]
1 | – | CCc1cccc2cc(O)cc(-c3ncc4c(N5CC6CCC(C5)N6)nc(OCCN5CCC(COc6cc([C@H](C(=O)N7C[C@H](O)C[C@H]7C(=O)N[C@@H](C)c7ccc(-c8scnc8C)cc7)C(C)C)on6)CC5)nc4c3F)c12 [Compound 20, (2S,4R)-1-[(2R)-2-[3-[[1-[2-[4-(3,8-diazabicyclo[3.2.1]octan-3-yl)-7-(8-ethyl-3-hydroxy-1-naphthyl)-8-fluoro-pyrido[4,3-d]pyrimidin-2-yl]oxyethyl]-4-piperidyl]methoxy]isoxazol-5-yl]-3-methyl-butanoyl]-4-hydroxy-N-[(1S)-1-[4-(4-methylthiazol-5-yl)phenyl]ethyl]pyrrolidine-2-carboxamide] | 80 to 100 | < 0.6 | > 3
2 | – | Cc1ncsc1-c1ccc([C@H](C)NC(=O)[C@@H]2C[C@@H](O)CN2C(=O)[C@@H](c2cc(OCC3CCN(CCOc4nc(N5CC6CCC(C5)N6)c5cnc(-c6cc(O)cc7cccc(Cl)c67)c(F)c5n4)CC3)no2)C(C)C)cc1 [Compound 40, (2S,4R)-1-[(2R)-2-(3-{[1-(2-{[7-(8-chloro-3-hydroxynaphthalen-1-yl)-4-{3,8-diazabicyclo[3.2.1]octan-3-yl}-8-fluoropyrido[4,3-d]pyrimidin-2-yl]oxy}ethyl)piperidin-4-yl]methoxy}-1,2-oxazol-5-yl)-3-methylbutanoyl]-4-hydroxy-N-[(1S)-1-[4-(4-methyl-1,3-thiazol-5-yl)phenyl]ethyl]pyrrolidine-2-carboxamide] | 80 to 100 | < 0.6 | > 3
3 | 60 to 80 | CCc1cccc2cc(O)cc(-c3ncc4c(N5CCCCCC5)nc(OC[C@]56CCCN5[C@@H](COC(=O)N5CCN(c7cc([C@H](C(=O)N8C[C@H](O)C[C@H]8C(=O)N[C@@H](C)c8ccc(-c9scnc9C)cc8)C(C)C)on7)CC5)CC6)nc4c3F)c12 [Compound 45, [(3R,7aR)-7a-({[4-(azepan-1-yl)-7-(8-ethyl-3-hydroxynaphthalen-1-yl)-8-fluoropyrido[4,3-d]pyrimidin-2-yl]oxy}methyl)-hexahydro-1H-pyrrolizin-3-yl]methyl 4-{5-[(2R)-1-[(2S,4R)-4-hydroxy-2-{[(1S)-1-[4-(4-methyl-1,3-thiazol-5-yl)phenyl]ethyl]carbamoyl}pyrrolidin-1-yl]-3-methyl-1-oxobutan-2-yl]-1,2-oxazol-3-yl}piperazine-1-carboxylate] | 80 to 100 | < 0.6 | ≤ 0.6
4 | – | C#Cc1cccc2cc(O)cc(-c3ncc4c(N5CC6CCC(C5)N6)nc(OCCN5CCC(COc6cc([C@H](C(=O)N7C[C@H](O)C[C@H]7C(=O)N[C@@H](C)c7ccc(-c8scnc8C)cc7)C(C)C)on6)CC5)nc4c3F)c12 [Compound 48, (2S,4R)-1-[(2R)-2-{3-[(1-{2-[(4-{3,8-diazabicyclo[3.2.1]octan-3-yl}-7-(8-ethynyl-3-hydroxynaphthalen-1-yl)-8-fluoropyrido[4,3-d]pyrimidin-2-yl)oxy]ethyl}piperidin-4-yl)methoxy]-1,2-oxazol-5-yl}-3-methylbutanoyl]-4-hydroxy-N-[(1S)-1-[4-(4-methyl-1,3-thiazol-5-yl)phenyl]ethyl]pyrrolidine-2-carboxamide] | 80 to 100 | < 0.6 | > 3
5 | 20 to 60 | C#Cc1cccc2cc(O)cc(-c3ncc4c(N5CC6CCC(C6)C5)nc(OCCN5CCC(COCC(=O)N[C@H](C(=O)N6C[C@H](O)C[C@H]6C(=O)N[C@@H](C)c6ccc(-c7scnc7C)cc6)C(C)(C)C)CC5)nc4c3F)c12 [Compound 17, (2S,4R)-1-[(2S)-2-[[2-[[1-[2-[4-(3-azabicyclo[3.2.1]octan-3-yl)-7-(8-ethynyl-3-hydroxy-1-naphthyl)-8-fluoro-pyrido[4,3-d]pyrimidin-2-yl]oxyethyl]-4-piperidyl]methoxy]acetyl]amino]-3,3-dimethyl-butanoyl]-4-hydroxy-N-[(1S)-1-[4-(4-methylthiazol-5-yl)phenyl]ethyl]pyrrolidine-2-carboxamide] | – | > 3 | 1 to 3
6 | – | CCc1cccc2cc(O)cc(-c3ncc4c(N5CC6CCC(C5)N6)nc(OCCN5CCC(COCC(=O)N[C@H](C(=O)N6C[C@@H](O)C[C@H]6C(=O)N[C@@H](C)c6ccc(-c7scnc7C)cc6)C(C)(C)C)CC5)nc4c3F)c12 [Compound 10, (2S,4S)-1-[(2S)-2-[[2-[[1-[2-[4-(3,8-diazabicyclo[3.2.1]octan-3-yl)-7-(8-ethyl-3-hydroxy-1-naphthyl)-8-fluoro-pyrido[4,3-d]pyrimidin-2-yl]oxyethyl]-4-piperidyl]methoxy]acetyl]amino]-3,3-dimethyl-butanoyl]-4-hydroxy-N-[(1S)-1-[4-(4-methylthiazol-5-yl)phenyl]ethyl]pyrrolidine-2-carboxamide] | – | > 3 | > 3
7 | – | CCc1cccc2cc(O)cc(-c3ncc4c(N5CC6CCC(C5)N6)nc(OCCN5CCC(COc6cc([C@@H](C(=O)N7C[C@H](O)C[C@H]7C(=O)N[C@@H](C)c7ccc(-c8scnc8C)cc7)C(C)C)on6)CC5)nc4c3F)c12 [Compound 8, (2S,4R)-1-[(2S)-2-[3-[[1-[2-[4-(3,8-diazabicyclo[3.2.1]octan-3-yl)-7-(8-ethyl-3-hydroxy-1-naphthyl)-8-fluoro-pyrido[4,3-d]pyrimidin-2-yl]oxyethyl]-4-piperidyl]methoxy]isoxazol-5-yl]-3-methyl-butanoyl]-4-hydroxy-N-[(1S)-1-[4-(4-methylthiazol-5-yl)phenyl]ethyl]pyrrolidine-2-carboxamide] | 20 to 60 | 1 to 3 | > 3
8 | 80 to 100 | CCc1cccc2cc(O)cc(-c3ncc4c(N5CCCCCC5)nc(OC[C@@]56CCCN5[C@H](COC(=O)N5CCN(c7cc([C@H](C(=O)N8C[C@H](O)C[C@H]8C(=O)N[C@@H](C)c8ccc(-c9scnc9C)cc8)C(C)C)on7)CC5)CC6)nc4c3F)c12 [Compound 42, [(3S,7aS)-7a-({[4-(azepan-1-yl)-7-(8-ethyl-3-hydroxynaphthalen-1-yl)-8-fluoropyrido[4,3-d]pyrimidin-2-yl]oxy}methyl)-hexahydro-1H-pyrrolizin-3-yl]methyl 4-{5-[(2R)-1-[(2S,4R)-4-hydroxy-2-{[(1S)-1-[4-(4-methyl-1,3-thiazol-5-yl)phenyl]ethyl]carbamoyl}pyrrolidin-1-yl]-3-methyl-1-oxobutan-2-yl]-1,2-oxazol-3-yl}piperazine-1-carboxylate] | 80 to 100 | < 0.6 | ≤ 0.6
9 | – | C#Cc1cccc2cc(O)cc(-c3ncc4c(N5CC6CCC(C6)C5)nc(OCCN5CCC(COc6cc([C@H](C(=O)N7C[C@H](O)C[C@H]7C(=O)N[C@@H](C)c7ccc(-c8scnc8C)cc7)C(C)C)on6)CC5)nc4c3F)c12 [Compound 18, (2S,4R)-1-[(2R)-2-[3-[[1-[2-[4-(3-azabicyclo[3.2.1]octan-3-yl)-7-(8-ethynyl-3-hydroxy-1-naphthyl)-8-fluoro-pyrido[4,3-d]pyrimidin-2-yl]oxyethyl]-4-piperidyl]methoxy]isoxazol-5-yl]-3-methyl-butanoyl]-4-hydroxy-N-[(1S)-1-[4-(4-methylthiazol-5-yl)phenyl]ethyl]pyrrolidine-2-carboxamide] | – | > 3 | > 3
10 | – | CCc1cccc2cc(O)cc(-c3ncc4c(N5CC6CCC(C5)N6)nc(OCCN5CCC(CCOCC(=O)N[C@H](C(=O)N6C[C@H](O)C[C@H]6C(=O)N[C@@H](C)c6ccc(-c7scnc7C)cc6)C(C)(C)C)CC5)nc4c3F)c12 [Compound 13] | 80 to 100 | 0.6 to 1 | > 3

Row | Structure (SMILES) | Dmax (SW1573 HiBiT-KRASG12C) [%] | Dmax (AsPC-1 HiBiT-KRASG12D) [%] | DC50 (AsPC-1 HiBiT-KRASG12D) [µM] | DC50 (SW1573 HiBiT-KRASG12C) [µM]
11 | CCc1cccc2cc(O)cc(-c3ncc4c(N5CC6CCC(C5)N6)nc(OC[C@]56CCCN5[C@@H](COc5cc(C(C(=O)N7C[C@H](O)C[C@H]7C(=O)N[C@@H](C)c7ccc(-c8scnc8C)cc7)C(C)C)on5)CC6)nc4c3F)c12 (stereo partly drawn) [Compound 38, (2S,4R)-1-[2-(3-{[(3R,7aR)-7a-{[(4-{3,8-diazabicyclo[3.2.1]octan-3-yl}-7-(8-ethyl-3-hydroxynaphthalen-1-yl)-8-fluoropyrido[4,3-d]pyrimidin-2-yl)oxy]methyl}-hexahydro-1H-pyrrolizin-3-yl]methoxy}-1,2-oxazol-5-yl)-3-methylbutanoyl]-4-hydroxy-N-[(1S)-1-[4-(4-methyl-1,3-thiazol-5-yl)phenyl]ethyl]pyrrolidine-2-carboxamide] | 20 to 60 | 80 to 100 | < 0.6 | 1 to 3
12 | Cc1ncsc1-c1ccc([C@H](C)NC(=O)[C@@H]2C[C@@H](O)CN2C(=O)[C@@H](c2cc(OCC3CCN(CCOc4nc(N5CC6CCC(C5)N6)c5cnc(-c6cc(O)cc(Cl)c6C(C)C)c(F)c5n4)CC3)no2)C(C)C)cc1 [Compound 41, (2S,4R)-1-[(2R)-2-[3-({1-[2-({7-[3-chloro-5-hydroxy-2-(propan-2-yl)phenyl]-4-{3,8-diazabicyclo[3.2.1]octan-3-yl}-8-fluoropyrido[4,3-d]pyrimidin-2-yl}oxy)ethyl]piperidin-4-yl}methoxy)-1,2-oxazol-5-yl]-3-methylbutanoyl]-4-hydroxy-N-[(1S)-1-[4-(4-methyl-1,3-thiazol-5-yl)phenyl]ethyl]pyrrolidine-2-carboxamide] | 20 to 60 | 20 to 60 | < 0.6 | > 3
